Data as given in patent US12171756B2, “NLRP3 modulators” (Innate Tumor Immunity, Inc., priority 2017, dated 2024).

Tests used:
human TLR7 = target: T1, human TLR7 (Homo sapiens, UniProt Q9NYK1); assay: In vitro human TLR7 binding reporter assay (HEK-Blue, NF-kB/AP1-inducible SEAP); type: cell-based; conditions: HEK-Blue human TLR7 SEAP reporter cells; activity range classes; read-out: TLR7 Agonist EC50
T1 construct: host or cells: human HEK-Blue cells (HEK293-derived) co-expressing TLR7 and an NF-kB/AP1-inducible SEAP reporter
T1 sequence (Q9NYK1 27-1049): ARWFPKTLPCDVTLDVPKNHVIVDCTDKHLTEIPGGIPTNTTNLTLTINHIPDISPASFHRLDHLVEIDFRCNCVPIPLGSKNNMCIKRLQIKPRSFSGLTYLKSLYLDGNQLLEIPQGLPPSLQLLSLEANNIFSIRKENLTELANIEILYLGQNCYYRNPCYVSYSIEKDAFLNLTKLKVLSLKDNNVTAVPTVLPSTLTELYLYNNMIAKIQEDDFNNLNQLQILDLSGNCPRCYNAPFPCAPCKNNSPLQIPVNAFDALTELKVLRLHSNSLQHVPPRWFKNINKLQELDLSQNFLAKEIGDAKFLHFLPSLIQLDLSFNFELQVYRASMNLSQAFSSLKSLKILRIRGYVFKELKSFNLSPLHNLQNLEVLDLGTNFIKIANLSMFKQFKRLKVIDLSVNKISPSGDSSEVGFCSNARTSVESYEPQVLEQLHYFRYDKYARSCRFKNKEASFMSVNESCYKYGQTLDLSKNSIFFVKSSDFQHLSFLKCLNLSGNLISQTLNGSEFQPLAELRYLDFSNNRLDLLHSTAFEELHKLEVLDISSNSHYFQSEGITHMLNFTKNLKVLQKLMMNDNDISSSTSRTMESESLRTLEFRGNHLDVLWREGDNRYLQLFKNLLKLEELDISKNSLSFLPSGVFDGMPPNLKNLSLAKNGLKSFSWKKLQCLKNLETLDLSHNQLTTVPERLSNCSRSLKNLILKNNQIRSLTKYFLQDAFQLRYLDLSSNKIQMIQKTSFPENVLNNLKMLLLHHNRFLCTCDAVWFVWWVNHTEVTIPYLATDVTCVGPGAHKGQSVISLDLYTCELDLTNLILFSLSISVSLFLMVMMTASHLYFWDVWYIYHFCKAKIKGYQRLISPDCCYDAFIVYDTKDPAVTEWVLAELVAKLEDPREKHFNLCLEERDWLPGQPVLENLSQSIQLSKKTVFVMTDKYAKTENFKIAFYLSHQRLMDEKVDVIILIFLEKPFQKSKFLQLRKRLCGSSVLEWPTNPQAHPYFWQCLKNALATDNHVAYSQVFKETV
Experimental: (§1) In Vitro Human TLR7 and TLR8 Binding Reporter Assays
(§2) Logarithmically-growing human HEK-Blue cells co-expressing a TLR7 or TLR8 gene and a NF-kB/AP1-inducible SEAP (secreted embryonic alkaline phosphatase; Invivogen, San Diego, CA) reporter gene are added to individual wells of a 384-well plate (15,000 cells per 20 μL per well) and maintained for 24 h at 37° C., 5% CO2. Test compounds or DMSO are distributed to separate wells the next day using acoustic liquid handling technology (100 nL per well) and cells are subsequently incubated for 18 h at 37° C., 5% CO2. Cellular SEAP production is measured using an Envision plate reader instrument thirty minutes after adding freshly-made Quanti-Blue reagent (prepared by following manufacturer instructions; Invivogen, San Diego, CA) to the HEK-Blue TLR Nf-kB-SEAP cell reactions. All EC50 values (half-maximal effective concentration) are determined using proprietary data analysis software. Normalized EC50 value=absolute value determined by setting 100% Ymax using a reference standard RLU (relative light unit) values from cells treated with 50 μM of the reference standard.

human TLR8 = target: T2, human TLR8 (Homo sapiens, UniProt Q9NR97); assay: In vitro human TLR8 binding reporter assay (HEK-Blue, NF-kB/AP1-inducible SEAP); type: cell-based; conditions: HEK-Blue human TLR8 SEAP reporter cells; activity range classes; read-out: TLR8 Agonist EC50
T2 construct: host or cells: human HEK-Blue cells (HEK293-derived) co-expressing TLR8 and an NF-kB/AP1-inducible SEAP reporter
T2 sequence (Q9NR97 27-1041): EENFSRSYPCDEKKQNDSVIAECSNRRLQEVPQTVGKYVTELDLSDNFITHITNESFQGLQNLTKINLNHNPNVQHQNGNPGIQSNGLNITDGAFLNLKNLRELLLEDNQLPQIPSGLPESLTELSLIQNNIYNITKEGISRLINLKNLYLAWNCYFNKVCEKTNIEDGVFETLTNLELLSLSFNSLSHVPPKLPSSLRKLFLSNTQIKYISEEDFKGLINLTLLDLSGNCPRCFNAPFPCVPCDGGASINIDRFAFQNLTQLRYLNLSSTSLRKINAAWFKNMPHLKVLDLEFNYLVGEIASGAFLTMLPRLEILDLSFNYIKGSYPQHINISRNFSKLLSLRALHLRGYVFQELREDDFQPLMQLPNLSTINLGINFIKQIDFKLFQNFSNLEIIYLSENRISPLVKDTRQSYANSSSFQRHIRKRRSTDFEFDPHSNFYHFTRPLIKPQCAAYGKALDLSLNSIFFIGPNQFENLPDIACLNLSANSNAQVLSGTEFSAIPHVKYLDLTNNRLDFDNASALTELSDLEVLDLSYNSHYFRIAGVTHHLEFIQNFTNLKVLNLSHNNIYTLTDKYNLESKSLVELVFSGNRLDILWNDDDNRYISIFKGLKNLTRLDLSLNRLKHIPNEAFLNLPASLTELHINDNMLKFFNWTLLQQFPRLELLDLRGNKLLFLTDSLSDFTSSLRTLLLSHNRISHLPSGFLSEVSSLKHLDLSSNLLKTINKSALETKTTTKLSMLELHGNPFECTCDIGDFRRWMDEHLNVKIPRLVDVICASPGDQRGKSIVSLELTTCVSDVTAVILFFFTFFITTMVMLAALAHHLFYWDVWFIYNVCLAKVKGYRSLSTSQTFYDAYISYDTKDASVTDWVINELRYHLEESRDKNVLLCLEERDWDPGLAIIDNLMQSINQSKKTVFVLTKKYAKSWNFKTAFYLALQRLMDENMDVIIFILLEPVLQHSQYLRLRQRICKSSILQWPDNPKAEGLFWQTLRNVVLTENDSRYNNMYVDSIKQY
Experimental: as §1, §2

[1] = test system: IL-1β production in PMA-differentiated THP-1 cells; assay: Measurement of IL-1β production in PMA-differentiated THP-1 cells (ELISA, 4 hours); type: cell-based, human; conditions: Homo sapiens, THP-1, human IL-1β production, assayed using one or more of the described procedures, read-out: NLRP3 hIL1B IC50
Experimental: Measurement of IL-1β Production in PMA-Differentiated THP-1 Cells THP-1 cells were purchased from the American Type Culture Collection and sub-cultured according to instructions from the supplier. Prior to experiments, cells were cultured in RPMI 1640 containing 10% heat inactivated FBS, penicillin (100 units/ml) and streptomycin (100 μg/ml), and maintained in log phase prior to experimental setup. Prior to the experiment THP-1 were treated with PMA (Phorbol 12-myristate 13-acetate) (10 μg/ml) for 24 hours. The day of the experiment the media was removed and attaching cells were treated with trypsin for 2 minutes, cells were then collected, washed with PBS (phosphate buffer saline), spin down, resuspended in 2% heat inactivated FBS with RPMI at a concentration of 1×10^6 cells/ml, and 100 μl was plated in a 96 well plate. Compounds were dissolved in dimethyl sulfoxide (DMSO) and added to the culture medium to achieve desired concentration (e.g. 100, 30, 10, 3, 1, 0.3 or 0.1 μM). Cells were incubated with compounds for 4 hours. Cell free supernatant was collected and the production of IL-1β was evaluated by ELISA. A vehicle only control was run concurrently with each experiment. Final DMSO concentration was 1%.

SMILES	EC50 (human TLR7) [µM]	EC50 (human TLR8) [µM]	IC50 [1] [µM]
Nc1cc(NCC(O)c2cccnc2)c2ccc(-c3ccn[nH]3)cc2n1 (stereo not drawn) [Compound 154]	> 100	> 100	0.44
Nc1cc(NCC(O)c2ccccn2)c2ccc(-c3ccn[nH]3)cc2n1 (stereo not drawn) [Compound 155]	> 100	> 100	0.42
Cc1nc(CNc2cc(N)nc3cc(-c4ccn[nH]4)ccc23)cs1 [Compound 156]	> 100	> 100	0.2
CC(=O)N[C@H]1CCN(c2cc(N)nc3cc(-c4ccn[nH]4)ccc23)C1 [Compound 158]	> 100	> 100	35.8
Nc1cc(NCc2cnc[nH]2)c2ccc(-c3ccn[nH]3)cc2n1 [Compound 159]	> 100	> 100	0.52
Nc1cc(N[C@H]2CCCC[C@@H]2O)c2ccc(-c3ccn[nH]3)cc2n1 [Compound 160]	> 100	> 100	2.76
Nc1cc(NCC(F)(F)c2ccccn2)c2ccc(-c3ccn[nH]3)cc2n1 [Compound 161]	> 100	> 100	0.15
Nc1cc(N[C@@H]2CCCC[C@H]2O)c2ccc(-c3ccn[nH]3)cc2n1 [Compound 162]	> 100	> 100	2.49
Nc1cc(N2CCc3ncccc3C2)c2ccc(-c3ccn[nH]3)cc2n1 [Compound 164]	> 100	> 100	1.91
CN(C)c1cc(N)nc2cc(-c3ccn[nH]3)ccc12 [Compound 166]	> 100	> 100	0.56
Nc1cc(-n2ccnc2)c2ccc(-c3ccn[nH]3)cc2n1 [Compound 167, 4-(1H-imidazol-1-yl)-7-(1H-pyrazol-5-yl)quinolin-2-amine]	> 100	> 100	8.33
Nc1cc(OCCCCO)c2ccc(-c3ccn[nH]3)cc2n1 [Compound 172, 4-((2-amino-7-(1H-pyrazol-5-yl)quinolin-4-yl)oxy)butan-1-ol]	> 100	> 100	0.41
CNC(=O)CCNc1cc(N)nc2cc(-n3cccn3)ccc12 [Compound 174]	> 100	> 100	0.82
Nc1cc(NCc2cccnc2)c2ccc(-n3cccn3)cc2n1 [Compound 175]	> 100	> 100	0.97
CC(C)(O)CNc1cc(N)nc2cc(-n3cccn3)ccc12 [Compound 176]	> 100	> 100	0.7
CC(=O)NCCOc1cc(N)nc2cc(-n3cccn3)ccc12 [Compound 177, N-(2-((2-amino-7-(1H-pyrazol-1-yl)quinolin-4-yl)oxy)ethyl)acetamide]	> 100	> 100	3.07
Nc1cc(OCCCCN2CCS(=O)(=O)CC2)c2ccc(-c3ccn[nH]3)cc2n1 [Compound 180]	> 100	> 100	9.72
CCCOc1cc(N)nc2cc(-c3ccn[nH]3)ccc12 [Compound 182]	> 100	> 100	1.14
Nc1cc(OCC(=O)N2CCCC2)c2ccc(-c3ccn[nH]3)cc2n1 [Compound 183]	> 100	> 100	8.4

Other lines, results leading:

EC50 (human TLR7) [µM]	EC50 (human TLR8) [µM]	IC50 [1] [µM]	SMILES
> 100	> 100	0.31	Nc1cc(NCCc2ccccn2)c2ccc(-c3ccn[nH]3)cc2n1 [Compound 151]
> 100	> 100	1.03	Nc1cc(NCCn2ccnc2)c2ccc(-c3ccn[nH]3)cc2n1 [Compound 152]
> 100	> 100	1.11	Nc1cc(NC[C@H](O)CO)c2ccc(-c3ccn[nH]3)cc2n1 [Compound 153]
> 100	> 100	0.16	Nc1cc(NCCn2cncn2)c2ccc(-c3ccn[nH]3)cc2n1 [Compound 163]
> 100	> 100	0.47	C[C@@H](CO)Nc1cc(N)nc2cc(-c3ccn[nH]3)ccc12 [Compound 165]
> 100	> 100	1.37	Nc1cc(NCCO)c2ccc(-c3cc[nH]n3)cc2n1 [Compound 169]
> 100	> 100	5.82	CCN(CC)CCNc1cc(N)nc2cc(-c3ccn[nH]3)ccc12 [Compound 170]
> 100	> 100	0.28	Nc1cc(NCCCO)c2ccc(-n3cccn3)cc2n1 [Compound 173, 3-((2-amino-7-(1H-pyrazol-1-yl)quinolin-4-yl)amino)propan-1-ol]
> 100	> 100	0.7	Nc1cc(OCCO)c2ccc(-c3ccn[nH]3)cc2n1 [Compound 178, 2-((2-amino-7-(1H-pyrazol-5-yl)quinolin-4-yl)oxy)ethan-1-ol]
> 100	> 100	0.78	Nc1cc(OCCCO)c2ccc(-c3ccn[nH]3)cc2n1 [Compound 179]
